Where two headings read alike, the source gives them in different places.

In general, Kd refers to the concentration at which binding is half-saturated. A low value points to a tighter complex.

The target in test [1] is cetuximab. As to the kind of experiment: Surface plasmon resonance (Biacore T100) binding kinetics of meditope variants to immobilised cetuximab IgG. The note with it: SPR, 25°C, at pH 5.5.
For test [2], the system named is cetuximab. The description is as above. The note with it: 25°C; for k a / k d: pH 7.4, HBS-EP+. As for the experimental part: All surface plasmon resonance (SPR) experiments were performed on a GE Biacore T100 instrument (GE Healthcare) at 25°C as described previously (Bzymek, Avery et al., 2016[▸]; Bzymek, Ma et al., 2016[▸]). Briefly, cetuximab IgG ligand was amine-coupled to CM5 chips using acetate buffer pH 5.5 at a density of 5000 RU. Analytes were prepared in GE buffer HBS-EP+ [10 mM HEPES pH 7.4, 150 mM NaCl, 3 mM EDTA, 0.05%(v/v) surfactant P20]. Kinetics experiments were carried out at a flow rate of 30 µl min^−1 using HBS-EP+ as both the running and regeneration buffer. Experimental data were processed using Biacore T100 Evaluation software v.2.0.1. Purified peptides were dissolved in water and extensively dialyzed to remove any residual TFA, and their concentration was determined as described previously (Bzymek, Ma et al., 2016[▸]).

Test [3] has as its system cetuximab. More on the design: method as in Bzymek, Ma et al. (2016). The note with it: SPR, 25°C, pH 7.4; ref Bzymek, Ma et al. (2016); cited from earlier work.

Consider `CC(C)C[C@@H]1NC(=O)[C@H](CCCNC(=N)N)NC(=O)[C@H](CCCNC(=N)NCCC(=O)O)NC(=O)[C@H]([C@@H](C)O)NC(=O)[C@H](CO)NC(=O)[C@H](CC(C)C)NC(=O)[C@H](CC(=O)O)NC(=O)[C@H](Cc2ccccc2)NC(=O)[C@H](CCC(N)=O)NC(=O)CCCCCCNC(=O)[C@H](CCCCN)NC1=O` [(AHA)QFDLSTR(EtCOOH)RLK, aminoheptanoic acid-linked N-carboxyethylarginine meditope variant], for which, on cetuximab [1], the affinity, expressed as Kd, was 32 µM; the k a came out at 0.06 M^−1 s^−1 × 10^4; the k d stood at 0.020 s⁻¹.
In the test with cetuximab [2] (SPR), `CC(C)C[C@@H]1NC(=O)[C@H](CCCNC(=N)N)NC(=O)[C@H](CCCNC(=N)NCCCN)NC(=O)[C@H]([C@@H](C)O)NC(=O)[C@H](CO)NC(=O)[C@H](CC(C)C)NC(=O)[C@H](CC(=O)O)NC(=O)[C@H](Cc2ccccc2)NC(=O)[C@H](CCC(N)=O)NC(=O)CCCCCCNC(=O)[C@H](CCCCN)NC1=O` [(AHA)QFDLSTR(PrNH2)RLK, aminoheptanoic acid-linked N-(3-aminopropyl)-L-arginine meditope variant] had a k a of 1.2 M^−1 s^−1 × 10^4 and a k d of 0.110 s⁻¹.
Consider `CC(C)C[C@@H]1NC(=O)[C@H](CCCNC(=N)N)NC(=O)[C@H](CCCNC(=N)NCCCO)NC(=O)[C@H]([C@@H](C)O)NC(=O)[C@H](CO)NC(=O)[C@H](CC(C)C)NC(=O)[C@H](CC(=O)O)NC(=O)[C@H](Cc2ccccc2)NC(=O)[C@H](CCC(N)=O)NC(=O)CCCCCCNC(=O)[C@H](CCCCN)NC1=O` [(AHA)QFDLSTR(PrOH)RLK, aminoheptanoic acid-linked N-(3-hydroxypropyl)-L-arginine meditope variant], for which, in the test with cetuximab [2] (SPR), the k a came out at 1.2 M^−1 s^−1 × 10^4 and the k d is 0.027 s⁻¹. In addition, the “increase in the half-life of the complex over the nonmodified AHA-cyclized meditope” value with cetuximab [2] (t = ln(2)/k d, HBS-EP+ pH 7.4) was 1.7 fold.
Consider `CCCCNC(=N)NCCC[C@@H]1NC(=O)[C@H]([C@@H](C)O)NC(=O)[C@H](CO)NC(=O)[C@H](CC(C)C)NC(=O)[C@H](CC(=O)O)NC(=O)[C@H](Cc2ccccc2)NC(=O)[C@H](CCC(N)=O)NC(=O)CCCCCCNC(=O)[C@H](CCCCN)NC(=O)[C@H](CC(C)C)NC(=O)[C@H](CCCNC(=N)N)NC1=O` [(AHA)QFDLSTR(nBu)RLK, aminoheptanoic acid-linked n-butylarginine meditope variant], for which, in the test on cetuximab [2] (SPR), the k a was 2.2 M^−1 s^−1 × 10^4 and the k d is 0.060 s⁻¹. Moreover, in the test on cetuximab [2] (t = ln(2)/k d, HBS-EP+ pH 7.4), the “change of half-life of the complex versus nonmodified AHA-cyclized meditope (in words)” value is “slightly reduced”.
Consider `CCCCCCCCNC(=N)NCCC[C@@H]1NC(=O)[C@H]([C@@H](C)O)NC(=O)[C@H](CO)NC(=O)[C@H](CC(C)C)NC(=O)[C@H](CC(=O)O)NC(=O)[C@H](Cc2ccccc2)NC(=O)[C@H](CCC(N)=O)NC(=O)CCCCCCNC(=O)[C@H](CCCCN)NC(=O)[C@H](CC(C)C)NC(=O)[C@H](CCCNC(=N)N)NC1=O` [(AHA)QFDLSTR(nOc)RLK, aminoheptanoic acid-linked n-octylarginine meditope variant], for which, in the test on cetuximab [2] (SPR), the k a is 0.93 M^−1 s^−1 × 10^4 and the k d is 0.079 s⁻¹. In addition, the “change of half-life of the complex versus nonmodified AHA-cyclized meditope (in words)” value in the test on cetuximab [2] (t = ln(2)/k d, HBS-EP+ pH 7.4) is “slightly reduced”.
Turning to `CC(C)C[C@@H]1NC(=O)[C@H](CCCNC(=N)N)NC(=O)[C@H](CCCNC(=N)N)NC(=O)[C@H]([C@@H](C)O)NC(=O)[C@H](CO)NC(=O)[C@H](CC(C)C)NC(=O)[C@H](CC(=O)O)NC(=O)[C@H](Cc2ccccc2)NC(=O)[C@H](CCC(N)=O)NC(=O)CCCCCCNC(=O)[C@H](CCCCN)NC1=O` [reference compound], in the test on cetuximab [2] (SPR, pH 7.4), the “k a (on-rate)” value is 25000 M⁻¹ s⁻¹. Moreover, in the test on cetuximab [2] (SPR), the k a was determined as 2.5 M^−1 s^−1 × 10^4 and the k d came to 0.046 s⁻¹. Moreover, in the test with cetuximab [1], the k a was found to be 2.0 M^−1 s^−1 × 10^4 and the k d is 0.075 s⁻¹.
In the case of CQFDLSTRRLKC, the k a in the test on cetuximab [3] is reported as 8.8 M^−1 s^−1 × 10^4.

Values taken from paper PMC5713674, “Meditope–Fab interaction: threading the hole” (Acta Crystallographica. Section F, Structural Biology …, 2017).
